Data published in paper PMC9959130, “Effects of Side Chain and Peptide Bond Modifications on the Targeting Properties of Stabilized Minigastrin Analogs” (Pharmaceuticals, 2023).
Where a SMILES comes first, the peptide text is derived from it. [ ]: non-standard residue; d: D form. The star is where a group is joined. DOTA = O=C(O)CN1CCN(CC(=O)O)CCN(CC(=O)*)CCN(CC(=O)O)CC1; NMeNle = CCCC[C@H](NC)C(=O)O

Key:
[1] = target: T1, human CCK2R (Homo sapiens, UniProt P32239); experiment: Calcium mobilization assay (fluo-4 AM) on A431-CCK2R cells; assay type: cell-based; details: normalized to 10^−6 M pentagastrin, mean ± SEM of at least three independent experiments in triplicates
T1 construct: expressed in transfected cells; host or cells: A431 human epidermoid carcinoma cells, stably transfected (A431-CCK2R); originally provided by Dr. Luigi Aloj
T1 sequence (P32239 1-447): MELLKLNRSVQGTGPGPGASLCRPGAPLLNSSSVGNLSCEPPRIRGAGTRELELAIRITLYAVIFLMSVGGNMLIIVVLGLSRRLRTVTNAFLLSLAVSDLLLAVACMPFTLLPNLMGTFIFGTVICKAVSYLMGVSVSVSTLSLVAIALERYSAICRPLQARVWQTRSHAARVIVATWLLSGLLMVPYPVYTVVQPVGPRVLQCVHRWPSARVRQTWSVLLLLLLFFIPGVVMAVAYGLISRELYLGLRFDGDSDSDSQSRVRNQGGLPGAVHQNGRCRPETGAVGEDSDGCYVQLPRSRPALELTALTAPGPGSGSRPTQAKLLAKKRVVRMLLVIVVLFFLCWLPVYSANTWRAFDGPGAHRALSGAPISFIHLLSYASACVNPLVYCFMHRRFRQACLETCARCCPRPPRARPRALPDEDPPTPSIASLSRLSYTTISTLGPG
Text: (§1) A431 human epidermoid carcinoma cells overexpressing human CCK2R through stable transfection (A431-CCK2R) and the same cell line transfected with the empty vector (A431-mock) were used for cell assays. The cells are constantly available in our laboratory and were originally provided by Dr. Luigi Aloj. All cell culture media and reagents were obtained from Invitrogen Corporation (Lofer, Austria) or Sigma-Aldrich (Darmstadt, Germany). Dulbecco’s modified Eagle’s medium (DMEM) supplemented with 10% (v/v) fetal bovine serum and 1% of 100x penicillin−streptomycin−glutamine was used for cell culture. The cells were passaged three times per week using a 10x 2.5% trypsin-EDTA solution in a 1:2–1:3 ratio.
Analog-induced receptor activation was evaluated by a calcium mobilization assay using the calcium-sensitive dye fluo-4 AM (ThermoFisher Scientific, Montigny-Le-Bretonneux, France), as previously described. Briefly, A431-CCK2R cells were seeded (60,000/well) in flat clear bottom black 96-well plates (Corning, Bagneaux-sur-Loing, France) coated with poly-L-ornithine (100 µg/mL, 1 h, 37 °C) (Sigma Aldrich, Saint Quentin Fallavier, France). Cytosolic Ca^2+ variations were measured before and after application of 50 µL of graded concentrations of the investigated peptides in the vicinity of the cells, and the effects on Ca^2+ mobilization were measured. Data were background corrected and normalized for the amplitudes caused by the medium alone (0%, no self-effect) or 10^−6 M pentagastrin (100%, maximal Ca^2+ mobilization response). Prism 4.0 software was used to calculate the EC50 values and the results were expressed as mean ± SEM for at least three independent experiments performed in triplicates.

[2] = target: T1, human CCK2R; experiment: Competitive binding assay against [125I][3-iodo-Tyr12,Leu15]gastrin-I on A431-CCK2R cells; details: unlabeled peptide, 1 h at RT, radioligand [125I][3-iodo-Tyr12,Leu15]gastrin-I, mean ± sd of three independent experiments in triplicates
Text: as §1
Receptor affinity studies of the DOTA-conjugates for the CCK2R was competitively evaluated against [^125I][3-iodo-Tyr^12,Leu^15]gastrin-I. The binding assays were performed in 96-well filter plates (MultiScreenHTS-FB, Merck Group, Darmstadt, Germany) as previously described. A431-CCK2R cells (200,000–400,000/well) were incubated for 1 h at RT with the peptides (concentration range of 0.01–1000 nM) and [^125I][3-iodo-Tyr^12,Leu^15]gastrin-I (~25,000 cpm). The incubation was arrested by filtering the medium by vacuum and rinsing twice rapidly with ice-cold binding assay buffer (10 mM TRIS/139 mM NaCl, pH 7.3). The filters were removed from the plate, transferred into 4.5 mL tubes and measured in the γ-counter. Data were normalized from 0 to 100 for graphical representation of exemplary binding curves. Origin software (Microcal Origin 6.1, Northampton, MA, USA) was used to calculate the half maximal inhibitory concentration (IC50) values by nonlinear regression and expressed as mean ± sd for three independent experiments performed in triplicates. An additional cell uptake study at 2 h after incubation was performed for DOTA-[(N-Me)1Nal^8]MGS5 radiolabeled with gallium-68 and lutetium-177 (see Figure S4 of the Supplementary Materials).

[3] = Metabolic studies in BALB/c mice (intact radiopeptide by radio-HPLC); assay type: in vivo; details: i.v., 2 nmol, 10 min p.i., two animals per peptide
Procedure: All animal experiments were approved by the Austrian Ministry of Science (BMWF-66.011/0075- WF/V/3b/2016) and performed in accordance with the Austrian Animal Protection Act. Metabolic studies characterizing the stability of selected radioligands against enzymatic degradation were carried out in 7 to 8 week old female BALB/c mice (Charles River, Sulzfeld, Germany). The mice (two animals for each peptide) were intravenously injected into a lateral tail vein with 5–10 MBq of the ^111In-labeled peptide derivatives, corresponding to 2 nmol total peptide. At the time point of 10 min p.i. the animals were euthanatized by cervical dislocation. A sample of urine and blood was immediately collected. Liver and kidneys were dissected, mixed with 20 mM HEPES buffer pH 7.3 (1:1, w/v) and homogenized using an Ultra-Turrax T8 homogenizer (IKA-Werke, Staufen, Germany) for 1 min. All samples taken were analyzed by analytical HPLC using the low-sensitivity loop for urine and the high-sensitivity loop for blood, liver and kidney. Before injection into the HPLC system, all samples except urine were treated with ACN and diluted with water as described for stability studies in human serum. The percentage of intact radiopeptide in the analyzed samples was calculated by integration of the different peaks found in the radiochromatogram using Chromeleon Dionex Software (Version 7.2.9.11323).

[4] = Complex stability in PBS; assay type: physicochemical; details: 1000 pmol/mL in PBS, room temperature, 4 h after incubation, n = 1
Procedure: In vitro stability studies were performed in human serum (n = 2). The radiolabeled peptides (1000 pmol/mL) were incubated at 37 °C and a sample of 100 μL was taken at 1, 4, and 24 h after incubation. After the precipitation of proteins with ACN at 1:1.5 (v/v), centrifugation (14,000 rpm, 2 min, centrifuge 5424, Eppendorf AG, Germany) and dilution with water at 1:1 (v/v), an aliquot of 100 μL of this solution was analyzed by HPLC. Radioligand breakdown was monitored and the percentage of intact radiopeptide was calculated using Chromeleon Dionex Software (Version 7.2.9.11323). Additionally, the radiolabeled peptides (1000 pmol/mL) were incubated in PBS (n = 1) at room temperature to confirm the complex stability as a control.

CCCC[C@@H](C(=O)N[C@@H](CC(=O)O)C(=O)N[C@@H](Cc1ccccc1)C(N)=O)N(C)C(=O)[C@H](Cc1c[nH]c2ccccc12)NC(=O)CNC(=O)[C@H](Cc1ccc(O)cc1)NC(=O)[C@H](C)NC(=O)[C@@H](CCC(=O)O)NC(=O)CN1CCN(CC(=O)O)CCN(CC(=O)O)CCN(CC(=O)O)CC1 [DOTA-[Phe^8]MGS5] ({DOTA}-[dE]AYGW[NMeNle]DF-NH2) showed an EC50 [1] of 6.3 ± 3.6 nM and an IC50 [2] of 0.7 ± 0.1 nM.
With CCCC[C@@H](C(=O)N[C@@H](CC(=O)O)C(=O)N(C)[C@@H](Cc1cccc2ccccc12)C(N)=O)N(C)C(=O)[C@H](Cc1c[nH]c2ccccc12)NC(=O)CNC(=O)[C@H](Cc1ccc(O)cc1)NC(=O)[C@H](C)NC(=O)[C@@H](CCC(=O)O)NC(=O)CN1CCN(CC(=O)O)CCN(CC(=O)O)CCN(CC(=O)O)CC1 [[^111In]In-DOTA-[(N-Me)1Nal^8]MGS5] [metal not drawn] the “Intact radiopeptide in kidney” value ([3]; kidney homogenate) was 40.2 ± 4.1%, the “Intact radiopeptide in liver” value ([3]; liver homogenate) was 94.9 ± 2.8% and the “Intact radiopeptide in blood” value [3] was 98.4 ± 0.1%. The “Intact radiopeptide in urine” value [3] was 15.9 ± 3.4% and the “Stability of the DOTA-complex in PBS” value [4] was 96.2%.
With CCCC[C@@H](C(=O)N[C@@H](CC(=O)O)C(=O)N(C)[C@@H](Cc1cccc2ccccc12)C(N)=O)N(C)C(=O)[C@H](Cc1c[nH]c2ccccc12)NC(=O)CNC(=O)[C@H](Cc1ccc(O)cc1)NC(=O)[C@H](C)NC(=O)[C@@H](CCC(=O)O)NC(=O)CN1CCN(CC(=O)O)CCN(CC(=O)O)CCN(CC(=O)O)CC1 [[^177Lu]Lu-DOTA-[(N-Me)1Nal^8]MGS5] [metal not drawn] the “Stability of the DOTA-complex in PBS” value [4] was 99%.
